The text below walks through data of patent US11019816B2, “Composition comprising cinmethylin-containing microparticles and a further herbicide” (BASF Agro B.V., priority 2017, dated 2021).

One data set has as its system Alopecurus myosuroides. The data set is described as follows: Field trial, post-emergence herbicidal activity. The data set is classed as in vivo. As to conditions: ALOMY, 31 DAT.
The subject of another data set is Raphanus raphanistrum. Description: Field trial, post-emergence herbicidal activity. In kind it is in vivo. To be noted: RAPRA, 31 DAT.
The next data set deals with Triticum aestivum. The data set is described as follows: Field trial, phytotoxicity (damage) on winter wheat. As to conditions: TRZAW (winter wheat, crop damage), post-emergence, 31 DAT.
For data set [1] the following is noted: at 20° C.; cited from earlier work.
Another data set deals with Lamium amplexicaule. The data set is described as follows: Field trial, post-emergence herbicidal activity. The data set is classed as in vivo. To be noted: LAMAM, 31 DAT.
A further data set deals with Capsella bursa-pastoris. Description: Field trial, post-emergence herbicidal activity. In kind it is in vivo. As to conditions: CAPBP, 31 DAT.
Another data set deals with Matricaria inodora. Description: Field trial, post-emergence herbicidal activity. The data set is classed as in vivo. As to conditions: MATIN, 31 DAT.

The structures appear in SMILES notation. ≈ marks a conversion by molar mass, not a printed value.

Protocol for Alopecurus myosuroides: (§1) Winter wheat was seeded in different soils ranging from sandy loam to clay loam soil containing 2.1-5.5% of organic matter.
(§2) For the post emergence treatment, the plants were first grown up to the 2 leaf stage (BBCH 12). Here, the herbicidal compositions were suspended or emulsified in water as distribution medium and sprayed using finely distributing nozzels.
(§3) The herbicidal activity for the individual herbicidal compositions (solo and mixture applications) was assessed 31 days after treatment (DAT).
(§4) The evaluation for the damage on winter wheat and undesired weeds caused by the tested compositions was carried out using a scale from 0 to 100%, compared to the untreated control plants. Here, 0 means no damage and 100 means complete destruction of the plants.
Protocol for Capsella bursa-pastoris: as §1, §2, §3, §4
Protocol for Lamium amplexicaule: as §1, §2, §3, §4
Protocol for Matricaria inodora: as §1, §2, §3, §4
Protocol for Raphanus raphanistrum: as §1, §2, §3, §4
Protocol for Triticum aestivum: as §2
Cinmethylin was used in the solo application as an emulsion concentrate with an active ingredient concentration of 750 g/l.
The mixture of cinmethylin and picolinafen as an emulsifiable concentrate was prepared from cinmethylin as an emulsifiable concentrate (EC) and picolinafen as a water dispersable granule (WG) having an active ingredient concentration of 500 g/l and 50 g/l, respectively.
as §3, §4

Regarding `Cc1ccccc1CO[C@@H]1C[C@@]2(C(C)C)CC[C@]1(C)O2` (racemic) [cinmethylin, (±)-2-exo-(2-methylbenzyloxy)-1-methyl-4-isopropyl-7-oxabicyclo[2.2.1]heptane], the herbicidal activity in the data set on Alopecurus myosuroides (use rate 500 g ai/ha) is on record as 100%; in the data set with Raphanus raphanistrum (use rate 500 g ai/ha), 10%; in the data set with Triticum aestivum (use rate 500 g ai/ha), 0%; in the data set on Triticum aestivum (use rate 1000 g ai/ha), 0%; in the data set with Lamium amplexicaule (use rate 500 g ai/ha) it was 53%; in the data set with Capsella bursa-pastoris (use rate 500 g ai/ha) it was 65%. Also, the herbicidal activity with Matricaria inodora (use rate 500 g ai/ha) is reported as 62%. Further, the solubility in water in data set [1] was 63 µg/mL (≈ 230 µM).
As for `O=C(Nc1ccc(F)cc1)c1cccc(Oc2cccc(C(F)(F)F)c2)n1` [picolinafen (WG), picolinafen], the herbicidal activity in the data set on Alopecurus myosuroides (use rate 50 g ai/ha) amounted to 0%; in the data set on Raphanus raphanistrum (use rate 50 g ai/ha), 98%; in the data set on Triticum aestivum (use rate 50 g ai/ha), 0%; in the data set with Triticum aestivum (use rate 100 g ai/ha), 0%; in the data set with Lamium amplexicaule (use rate 50 g ai/ha) it was 94%; in the data set with Capsella bursa-pastoris (use rate 50 g ai/ha) it was 96%. The compound further came in with a herbicidal activity in the data set with Matricaria inodora (use rate 50 g ai/ha) of 69%.
